# Measurements reported in publication PMC12684391, “Mechanistic insights into the monotherapy and combination potential of FEN1 inhibition in cancer therapy” (Nucleic Acids Research, 2025).
# Columns and labels:
# Type in all cases: cell-based
# DLD-1 BRCA2KO cells = test: Cell viability assay (AlamarBlue), 7 days
# Protocol: Cells were seeded in 96-well plates and treated the day after seeding with a serial dilution of compounds in technical duplicates. After 7 days, viability was analyzed using the AlamarBlue reagent (BioRad). AlamarBlue was added in an amount equal to 10% of the volume in the well and after a 4–6 h incubation viability was determined by fluorescence analysis using a standard plate reader. Fluorescence was normalized to vehicle treated control for each cell line, and data were fitted in Genedata Screener to generate compound sensitivity curves and determine IC50 or EC50 (half maximal inhibitory/effective concentration) values as indicated.
# [1] = system: MMEJ (resection independent reporter); test: Extrachromosomal MMEJ reporter assay, resection independent, HEK-293
# Protocol: (§1) MMEJ resection-independent and MMEJ resection-dependent reporter assays performed as previously described. In brief, HEK-293 cells were resuspended in supplemented SF nucleofection solution (Lonza) containing nanoluciferase DNA substrate and Firefly luciferase plasmid (Promega) at a ratio of 100 μl SF: 1500 ng nanoluciferase substrate: 1000 ng Firefly plasmid: ∼1.5 × 10^6 cells. Cells were electroporated and recovered into fresh media before seeding into a 96-well plate pre-dosed with compounds and DMSO control.
# (§2) After 24 h, Firefly and NanoLuc levels were detected using the Nano-Glo® Dual-Luciferase® Reporter Assay system (Promega) as per the manufacturer’s instructions. NanoLuc luminescence (reporter) was normalized to Firefly luminescence (control) to determine substrate repair. Percentage repair was calculated relative to the DMSO control.
# [2] = system: MMEJ (resection dependent reporter); test: Extrachromosomal MMEJ reporter assay, resection dependent, HEK-293; details: Homo sapiens, HEK293, HEK-293, 24 h, read-out: MMEJ inhibition EC50
# Protocol: as §1, §2
# [3] = system: DLD-1, DLD-1 BRCA2KO, SUM149PT, MDA-MB-436 cells; test: Cell cycle analysis by immunofluorescence (PCNA/DAPI)
# Protocol: Cells were seeded at a density of 10 000 cells per well in 100 μl of media in collagen-coated 96-well plates (Revvity, #6055700). Twenty-four hours after seeding, cells were treated with the indicated doses of MSC2798778, MSC2798781, or DMSO (Apollo Scientific, BID1200) using a D300e digital dispenser (Tecan) for 24 h. Cells were washed with PBS and fixed in 4% PFA (ChemCruz, sc-281692) for 10 min at room temperature.
# For immunofluorescence staining, cells were washed with PBS then blocked and permeabilized with PBS containing 0.5% BSA and 0.5% Triton X-100 (blocking buffer) for 45 min at room temperature. Cells were then stained with the indicated markers by incubation with primary antibodies (Supplementary Table S5) diluted in the blocking buffer, overnight at 4°C. […]
# • Foci were quantified by setting up a contrast threshold higher than the background signal. • pKAP1 positive cells were selected using a mean intensity threshold. • Cell cycle analysis was performed by defining gates on a bivariate plot of DAPI total nuclear intensity and PCNA mean nuclear intensity. PCNA positive cells were scored as cells in S-phase. G1 and G2/M cells were scored as PCNA negative cells with differential DNA content. • PARylation and replication levels were quantified by measuring the mean nuclear fluorescence intensity, in PCNA positive cells, of poly/mono-ADP ribosylation and EdU, respectively.
"EC50 (DLD-1 BRCA2KO cells; Homo sapiens, 168 h, DLD-1 BRCA2KO, 7 days, AlamarBlue, N = 3) [nM]","EC50 ([1]; Homo sapiens, HEK293, resection independent reporter, HEK-293, 24 h, read-out: MMEJ inhibition EC50) [nM]",EC50 [2] [nM],Structure (SMILES),Sensitivity of DLD-1 BRCA2KO relative to parental DLD-1 cells (DLD-1 BRCA2KO cells; more sensitive than isogenic DLD-1 wild-type) [fold],"MMEJ potency relative to ART558 ([1]; lower potency than ART558, both reporters)","Cell cycle effect ([3]; 24 h treatment, all four cell lines)","Sensitivity of cell lines (viability) (DLD-1 BRCA2KO cells; DLD-1 and DLD-1 BRCA2KO, 7 days, AlamarBlue, compared with MSC778)","Inhibited MMEJ ([1]; both reporters, HEK-293)","Cell cycle effect ([3]; 3 µM, HRD panel and EWS panel (U-2 OS, RD-ES, MHH-ES-1))"
220,1000,840,C[C@H](Oc1nn2c(c(O)c1=O)C(=O)N1CCOC[C@@H]1C2)c1ccc2ccc(Cl)cc2c1 [MSC778],~10,10–20 fold,titratable S-phase accumulation,,,
,,,C[C@@H](Oc1nn2c(c(O)c1=O)C(=O)N1CCOC[C@@H]1C2)c1ccc2ccc(Cl)cc2c1 [MSC781],,,,much less sensitive,not,not perturbed
